Some test systems named below: OVCAR-8; RPMI-8226; SF-295; ACHN; SW-620; SK-MEL-5; IGROV-1; SK-OV-3; UACC-62; KM12; NCI-H460; T47D; SN12C; SNB-19; M14; HCC 2998; SR; K562; A549; UO-31.
Test in all cases: NCI-60 cell line screen, 48 h

Molecules are shown by their SMILES.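 Exposure lasted 48 hours, with cells grown in 96-well plates and compounds tested at five concentrations. At the GI50, growth is halved.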 Activity calls are given as the source filed them. Rule as the data show it: active = GI50 up to about 1.1 µM and inactive = higher.

On to `O=c1c(-c2c(-c3ccccc3)oc3ccc(Cl)cc3c2=O)c(-c2ccccc2)oc2ccc(Cl)cc12`, for which the GI50 with OVCAR-8 was > 74.1 µM (inactive); with RPMI-8226, > 100 µM (inactive); in the experiment with SF-295, > 51.8 µM (inactive); with ACHN it was > 75.9 µM (inactive); in the experiment on SW-620, > 100 µM (inactive); in the experiment on SK-MEL-5, > 100 µM (inactive). In addition, the GI50 in the experiment with IGROV-1 is > 56.2 µM (inactive); in the experiment with SK-OV-3, > 51.4 µM (inactive); in the experiment on UACC-62, > 82.8 µM (inactive); in the experiment with KM12 it was > 100 µM (inactive); in the experiment with NCI-H460, > 94.8 µM (inactive); in the experiment with T47D, > 100 µM (inactive). Besides, the GI50 in the experiment on SN12C, with SNB-19, in the experiment with M14, in the experiment on HCC 2998, in the experiment with SR and with K562 was > 100 µM (inactive) throughout.
Take `COC(=O)[C@@H](COC(=O)/C=C/c1ccc(OC(C)=O)c(OC(C)=O)c1)NC(=O)/C=C/c1ccc(OC(C)=O)c(OC(C)=O)c1`: the GI50 is 22.5 µM (inactive) with OVCAR-8; 38.2 µM (inactive) in the experiment with RPMI-8226; 32.2 µM (inactive) in the experiment with ACHN; 33.3 µM (inactive) in the experiment on SW-620; 13.4 µM (inactive) with SK-MEL-5; 32.4 µM (inactive) with IGROV-1. Besides, the GI50 was 42.8 µM (inactive) with A549; 55.5 µM (inactive) in the experiment on SK-OV-3; 19.6 µM (inactive) in the experiment on UACC-62; 25.1 µM (inactive) in the experiment on KM12; 18.5 µM (inactive) in the experiment with NCI-H460; 11.1 µM (inactive) in the experiment on T47D. Further, the GI50 was 18 µM (inactive) with SN12C; 44.5 µM (inactive) in the experiment with SNB-19; 14.6 µM (inactive) with M14; 21.8 µM (inactive) in the experiment on HCC 2998; 8.49 µM (inactive) with SR; > 100 µM (inactive) with K562.
As to `O=C1O/C(=C\c2ccc(O)c(Br)c2)C(c2ccc(O)cc2)=C1Cl`, the GI50 is 42.5 µM (inactive) in the experiment on OVCAR-8; 10.1 µM (inactive) with RPMI-8226; 48.2 µM (inactive) in the experiment with UO-31; 40.5 µM (inactive) with SF-295; 49.9 µM (inactive) with ACHN; 38.2 µM (inactive) in the experiment with SW-620. For the same compound, the GI50 is 22.4 µM (inactive) in the experiment with SK-MEL-5; 55.6 µM (inactive) in the experiment on IGROV-1; 36.1 µM (inactive) in the experiment on A549; > 100 µM (inactive) in the experiment with SK-OV-3; 16.4 µM (inactive) in the experiment with UACC-62; 34.2 µM (inactive) with KM12. Besides, the GI50 in the experiment on NCI-H460 is 26.6 µM (inactive); in the experiment with T47D, 58.3 µM (inactive); with SNB-19, 89.3 µM (inactive); in the experiment on M14, 36.1 µM (inactive); in the experiment on HCC 2998 it was 39.1 µM (inactive); with SR, 35.1 µM (inactive). In addition, the GI50 in the experiment on K562 was 68.4 µM (inactive).
For the compound `CO[C@@H]1C[C@H](OC(N)=O)[C@@H]2C=C[C@@H]3/C=C(C)/C=C/[C@@H](C)[C@H]([C@H](C)[C@H](O)[C@@H](C)NC(C)=O)OC(=O)/C=C/C=C(C)\C=C\[C@]3(C)[C@@H]2C1`, the GI50 in the experiment with OVCAR-8 is 0.22 µM (active); in the experiment on RPMI-8226, < 0.01 µM (active); in the experiment on UO-31, < 0.01 µM (active); in the experiment on SF-295, < 0.01 µM (active); in the experiment with ACHN, < 0.01 µM (active); with SW-620, < 0.01 µM (active). For the same compound, the GI50 with SK-MEL-5 was < 0.01 µM (active); with IGROV-1 it was < 0.01 µM (active); with A549 it was < 0.01 µM (active); in the experiment on SK-OV-3 it was < 0.0504 µM (active); in the experiment on UACC-62, < 0.01 µM (active); in the experiment on KM12, < 0.01 µM (active). For the same compound, the GI50 in the experiment on NCI-H460 is < 0.01 µM (active); in the experiment with T47D, < 0.01 µM (active); in the experiment with SNB-19 it was 1.5 µM (inactive); in the experiment with M14, < 0.01 µM (active); in the experiment with HCC 2998 it was < 0.01 µM (active); with SR, < 0.01 µM (active). Moreover, the GI50 in the experiment on K562 is 0.0101 µM (active).

(Values after ChEMBL document CHEMBL1201862, “PubChem BioAssay data set” (2004).)
